The target in one test is HIV-1 protease (Human immunodeficiency virus type 1 group M subtype B (isolate HXB2) (HIV-1), UniProt P04585). The test can be described thus: HIV-1 protease inhibition assay (HPLC of hydrolysis product). It is filed as biochemical. The procedure: HIV was a retrovirus with a single-stranded RNA genome. HIV protease was an important enzyme for replication. Translated proteins in the host cell were out into the desired shape by the enzyme. The substance was a protein dimer consisting of 99 amino acids, and the active center was Asp residues.
In this assay, oligopeptide (His-Lys-Ala-Arg-Val-Leu-Phe(NO2)-Glu-Ala-NLe-Ser-NH2) with strengthened absorbance was prepared as a substrate, in which para site of […] was modified by nitro. The substrate was incubated in the presence of HIV-1 protease and the test samples. Generation ratio of hydrolysis product (Phe (NO2)-Glu-Ala-NLe-Ser-NH2) was analyzed by HPLC, and the HIV-1 inhibitory activity in test sample was detected (Y. Wei, C. M. Ma, D. Y. Chen and M. Hattori: Anti-HIV-1 Protease Triterpenoids from Stauntonia Obovatifoloala Hayata Subsp. Phytochemistry, 69, 1875-1879, 2008). In this assay, pepsatatin A was used as a positive control.

In the next test the target is HCV protease (Hepatitis C virus genotype 1a (isolate H77) (HCV), UniProt P27958). The following applies: from PCT publication No. WO 2009/094807, cited from earlier work; for IC50: read-out: anti HCV activity.
Test [1] addresses dipeptidyl peptidase-IV (DPPIV) (Homo sapiens (Human), UniProt P27487). The test can be described thus: dipeptidyl peptidase-IV (DPPIV) assay. The conditions noted are these: Table 10, first scaffold; read-out: IC50 against DPPIV (converted). It is filed as biochemical. From the text: In addition, the dipeptidyl peptidase-IV (DPPIV) assay herein was applied to investigate the DPPIV inhibitory activity of the prepared compounds as described above. The method of the DPPIV assay was described in Lin et al., 1998. Inhibition of dipeptidyl peptidase IV by fluoroolefin-containing N-peptidyl-O-hydroxylamine peptidomimetics. Proc. Natl. Acad. Sci. USA Vol. 95, pp. 14020-14024.

For test [2], the system named is Propionicbacterium acnes and lipopolysaccharide treated mice. The conditions noted are these: cited from earlier work.
A further test deals with NS3/4A HCV protease (Hepatitis C virus genotype 1a (isolate H77) (HCV), UniProt P27958). The test can be described thus: NS3/4A HCV protease inhibition assay. Format: biochemical. The following applies: read-out: NS3/4A HCV protease inhibitive activity IC50. Here is the method:
When sensitive cells were infected with HCV virus, some precursor proteins were translated from uncoated virus RNA in the cytoplasm. According to the protease, the precursor proteins were processed into different viral proteins. Among viral proteins, NS3, a serine protease and RNA helicase, was an important non-structural protein involved in virus protein maturation and virus genome replication.
In this assay, protein (FRET) was prepared and modified with fluorescent protein 5-FAM as a substrate and QXL™520 as a quencher. The substrate was incubated with NS3/4A HCV protease and testing samples, and the fluorescence intensity was measured, according to the mechanism shown in FIG. 7 (C. M. Ma, Yo Wei, Z. G. Wang and M. Hattori: Triterpenes from Cynomorium Songaricium-analysis of HCV Protease Inhibitory Activity, Quantification and Content Change Under the Influence of Heating. J. Nat. Med., 63, 9-14, 2009). In this assay, HCV NS3 Protease Inhibitor 2 was used as positive control.

[3] abbreviates: read-out: HIV-1 protease inhibitive activity IC50.

Each structure is given as a SMILES string. Like-named read-outs stand apart in the source and are kept apart here.

Sequence of HCV protease (P27958 1027-1657): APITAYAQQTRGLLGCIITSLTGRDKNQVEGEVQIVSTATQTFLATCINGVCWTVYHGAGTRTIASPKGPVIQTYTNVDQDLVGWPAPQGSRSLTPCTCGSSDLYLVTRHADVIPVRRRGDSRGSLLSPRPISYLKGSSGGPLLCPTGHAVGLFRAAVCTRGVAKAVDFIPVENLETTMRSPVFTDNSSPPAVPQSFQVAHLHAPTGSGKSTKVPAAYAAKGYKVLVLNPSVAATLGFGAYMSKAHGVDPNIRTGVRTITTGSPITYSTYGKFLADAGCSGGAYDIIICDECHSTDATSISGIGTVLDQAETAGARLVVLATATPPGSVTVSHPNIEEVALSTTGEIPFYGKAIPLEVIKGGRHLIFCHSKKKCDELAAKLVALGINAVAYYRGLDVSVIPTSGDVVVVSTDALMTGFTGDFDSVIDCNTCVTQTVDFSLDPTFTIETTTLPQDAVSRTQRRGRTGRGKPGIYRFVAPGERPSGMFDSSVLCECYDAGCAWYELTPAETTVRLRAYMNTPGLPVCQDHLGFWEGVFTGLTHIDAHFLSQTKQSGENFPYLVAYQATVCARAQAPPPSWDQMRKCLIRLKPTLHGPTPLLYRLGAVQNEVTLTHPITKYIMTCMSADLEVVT
Sequence of HCV protease (P27958 1658-1711 partner): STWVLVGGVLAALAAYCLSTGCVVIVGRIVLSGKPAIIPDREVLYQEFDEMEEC
Sequence of dipeptidyl peptidase-IV (DPPIV) (P27487 whole entry, species assumed): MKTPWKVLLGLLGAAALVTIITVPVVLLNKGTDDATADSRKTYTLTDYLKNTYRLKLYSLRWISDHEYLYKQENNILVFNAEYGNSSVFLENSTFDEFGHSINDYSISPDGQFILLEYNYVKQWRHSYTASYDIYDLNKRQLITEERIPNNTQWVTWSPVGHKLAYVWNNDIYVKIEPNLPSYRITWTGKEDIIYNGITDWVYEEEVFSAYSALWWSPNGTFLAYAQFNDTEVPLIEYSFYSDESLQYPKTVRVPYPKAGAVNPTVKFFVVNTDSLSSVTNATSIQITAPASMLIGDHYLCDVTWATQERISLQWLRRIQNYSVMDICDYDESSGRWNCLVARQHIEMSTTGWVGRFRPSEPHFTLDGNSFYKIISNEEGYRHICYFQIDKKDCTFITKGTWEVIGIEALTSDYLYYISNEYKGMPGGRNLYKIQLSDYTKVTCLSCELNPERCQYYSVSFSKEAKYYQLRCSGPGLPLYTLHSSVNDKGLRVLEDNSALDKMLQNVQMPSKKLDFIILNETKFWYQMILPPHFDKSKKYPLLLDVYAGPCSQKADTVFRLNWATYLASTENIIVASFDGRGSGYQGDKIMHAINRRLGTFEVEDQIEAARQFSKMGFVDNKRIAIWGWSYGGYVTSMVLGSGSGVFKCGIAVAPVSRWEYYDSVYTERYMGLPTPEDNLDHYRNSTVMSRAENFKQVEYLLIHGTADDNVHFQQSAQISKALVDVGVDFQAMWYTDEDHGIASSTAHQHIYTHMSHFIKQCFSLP
Sequence of NS3/4A HCV protease (P27958 1027-1657): as the sequence (P27958 1027-1657) above
Sequence of NS3/4A HCV protease (P27958 1658-1711 partner): as the sequence (P27958 1658-1711 partner) above

For `CC(C)=CCOc1ccc([C@H]2C(=O)N(O)C(=O)[C@@H]2CC(C)C)cc1` (relative stereo) [Compound 4, (3R*,4S*)-1-hydroxy-3-isobutyl-4-[4-(3-methyl-2-butenyloxy)phenyl]pyrrolidine-2,5-dione], the IC50 on HIV-1 protease (setting [3]) was found to be 4.4 µM.
Same read-out and setting: with `CC(C)=CCOc1ccc([C@@H]2C(=O)N(O)C(=O)[C@@H]2CC(C)C)cc1` (relative stereo) [Compound 5, (3R*,4R*)-1-hydroxy-3-isobutyl-4-[4-(3-methyl-2-butenyloxy)phenyl]pyrrolidine-2,5-dione] the figure was 198 µM.
`CC(C)=CCOc1ccc(C2=C(CC(C)C)C(=O)OC2=O)cc1` [Compound 1, 3-isobutyl-4-[4-(3-methyl-2-butenyloxy)phenyl]furan-2,5-dione]: the IC50 is 2.86 µM at HCV protease, 79.5 µM in test [1] and over 300 µM against HIV-1 protease.
In the case of `CC(C)=CCOc1ccc(C2=C(CC(C)C)C(=O)NC2=O)cc1` [Compound 2, 3-isobutyl-4-[4-(3-methyl-2-butenyloxy)phenyl]-1H-pyrrol-2,5-dione], the “anti HCV activity (in words)” value on HCV protease is “low activity”. Moreover, the IC50 in test [1] is 160 µM; against HIV-1 protease, 54 µM.
In the case of `CC(C)=CCOc1ccc(C2=C(CC(C)C)C(=O)N(O)C2=O)cc1` [Compound 3, 3-isobutyl-4-[4-(3-methyl-2-butenyloxy)phenyl]-1H-pyrrol-1-ol-2,5-dione], the IC50 on HCV protease was 8.8 µM; in test [1], 115 µM; against HIV-1 protease, 6.5 µM. In addition, the “protective activity in treated mice” value in test [2] was “protective activity”.
Consider `CC(C)=CCOc1ccc(C2C(=O)N(O)C(=O)/C2=C\C(C)C)cc1` (centres unmarked) [Compound of formula (XIII)], for which the IC50 on NS3/4A HCV protease was found to be 8.7 µM; at HIV-1 protease (setting [3]) it was 16.6 µM.
